From US10980723B2, “Non-aqueous composition for hair frizz reduction” (The Procter & Gamble Company, priority 2017, dated 2021)

Experiment: Hair Switch Frizz Assessment by ten expert graders
Conditions: for Results of Hair Switch Rating (frizz protection, clean feel, greasy feel) in words: aqueous compositions, Tables 3 and 4, 1% material; for Results of Hair Switch Rating (frizz protection, clean, smooth, greasy feel) in words: non-aqueous compositions, Tables 9 and 10, 1% material
Protocol: The leave-on treatment compositions are prepared by adding the Moisture Control Materials and perfume, if needed, into a 50:50 ethanol/water carrier and stirred until complete dissolution. The solution pH is adjusted using sodium hydroxide (50% w/w) to a final pH of 4.0-4.2. […] Method of Making Non-Aqueous Leave-on Treatment Compositions The non-aqueous leave-on treatment compositions are prepared by adding the Moisture Control Materials and perfume, if needed, into a mixture of Dimethiconol/Dimethicone and Cyclopentasiloxane/Isododecane and stirred until complete dissolution. Additionally, propylene glycol is added to aid in dissolution of moisture control materials at high levels of dimethicone. […] Method of Making of Non-Aqueous Leave-on Treatment Composition in a Solid Form The leave-on treatment composition in solid form is prepared by mixing together two different compositions. A premix and main-mix. […] In-Use Product Feel Assessment on Hair Switch Ten expert graders are asked to apply formulation on hair and rate each formulation based on a 5 point scale for in-use feel assessment, 5 being the highest (best feel) and 1 being the lowest rating. Method of Determining Stability of the Compositions Leave-on compositions are kept at 40° C. at 60% RH to visually assess any precipitation on day 1 and after a week of storage at these conditions.
Then, ten experts are asked to rate each hair switch in terms of frizz, clean feel, and greasy feel, based on a 5 point scale, 5 being the highest and 1 being the lowest rating.
Then, ten experts are asked to rate each hair switch in terms of frizz, clean feel, smooth feel and greasy feel, based on a 5 point scale, 5 being the highest and 1 being the lowest rating.

## O=C(O)c1ccc(O)cc1O [2,4-Dihydroxybenzoic acid]
  Results of Hair Switch Rating (frizz protection, clean feel, greasy feel) in words: provide frizz protection with clean feel and without greasy feel negative
  Results of Hair Switch Rating (frizz protection, clean, smooth, greasy feel) in words: provide frizz protection with clean and smooth feel and without greasy feel negative

## CCCCCCCCC(CO)CCCCCC (centres unmarked) [2-Hexyl-1-decanol]
  Results of Hair Switch Rating (frizz protection, clean feel, greasy feel) in words: provide frizz protection with clean feel and without greasy feel negative
  Results of Hair Switch Rating (frizz protection, clean, smooth, greasy feel) in words: provide frizz protection with clean, smooth feel and without greasy feel negative

## O=C(OCCO)c1ccccc1O [2-Hydroxyethyl salicylate]
  Results of Hair Switch Rating (frizz protection, clean feel, greasy feel) in words: provide frizz protection with clean feel and without greasy feel negative
  Results of Hair Switch Rating (frizz protection, clean, smooth, greasy feel) in words: provide frizz protection with clean, smooth feel and without greasy feel negative

## O=S(=O)(O)c1ccc(O)cc1 [4-Hydroxybenzenesulphonic acid]
  Results of Hair Switch Rating (frizz protection, clean feel, greasy feel) in words: provide frizz protection with clean feel and without greasy feel negative
  Results of Hair Switch Rating (frizz protection, clean, smooth, greasy feel) in words: provide frizz protection with clean and smooth feel and without greasy feel negative

## O=C(O)c1cc(Cl)ccc1O [5-Chlorosalicylic acid]
  Results of Hair Switch Rating (frizz protection, clean feel, greasy feel) in words: provide frizz protection with clean feel and without greasy feel negative
  Results of Hair Switch Rating (frizz protection, clean, smooth, greasy feel) in words: provide frizz protection with clean and smooth feel and without greasy feel negative

## CC(C)CCCCCCCCCCCCCCCOC(=O)CCCCCCCCCCCCCCC(C)C [Isostearyl isostearate]
  Results of Hair Switch Rating (frizz protection, clean feel, greasy feel) in words: provide frizz protection with clean feel and without greasy feel negative
  Results of Hair Switch Rating (frizz protection, clean, smooth, greasy feel) in words: provide frizz protection with clean, smooth feel and without greasy feel negative

## O=C(O)c1ccccc1O [Salicylic acid]
  Results of Hair Switch Rating (frizz protection, clean feel, greasy feel) in words: provide frizz protection with clean feel and without greasy feel negative
  Results of Hair Switch Rating (frizz protection, clean, smooth, greasy feel) in words: provide frizz protection with clean and smooth feel and without greasy feel negative
